IC50 and inhibition data for eleven compounds are collected here from US8846670B2, “1,2,3,4-tetrahydro-pyrimido(1,2-a)pyrimidin-6-one derivatives, preparation thereof, and pharmaceutical use thereof” (priority 2009, dated 2014).

What all share (assay type): cell-based
The test system of assay [1] is AKT protein phosphorylated on serine 473 (pAKT-S473) in PC3 human prostate carcinoma line. In words: Study of pAKT expression in PC3 human prostate carcinoma cells measured by western blotting (Test A). Particulars: PC-3, 1 to 2 hours incubation, approximate absolute IC50, mean of two experiments. Here is the method: The inhibitory activity of the molecules on AKT phosphorylation is measured either by western blotting using the technique described below, or by the MSD Multi-spot Biomarker detection technique from Meso Scale Discovery also described below. […] Study of pAKT Expression in Pc3Human Prostate Carcinoma Cells Measured by Western Blotting (Test A): This test is based on measuring the expression of the AKT protein phosphorylated on […]. […] On day 2, the cells are incubated in the presence or absence of the test products for 1 to 2 hours at 37° C. in the presence of 5% CO2. The molecules, diluted in dimethyl sulphoxide (DMSO Sigma #D2650), are added from a 10-times concentrated stock solution, the final percentage of DMSO being 0.1%. […] After this incubation, the cells are lysed for the preparation of the proteins. […] The lysate is centrifuged for 10 min at 6000 rpm. 155 μl of supernatant are recovered. 150 μl are incubated for denaturation for 5 min at 95° C. in the presence of 4× NuPAGE LDS Sample Buffer diluted 4-fold (InVitrogen ref NP0007) and of 10× NuPAGE Sample Reducing Agent diluted 10-fold (InVitrogen ref NP0009). These samples are then frozen at -20° C. […] The gel is then transferred on to an Invitrolon PVDF membrane (Invitrogen #LC2007) permeabilised beforehand for a few seconds in ethanol (Ethanol Fischer Scientific #E/0600DF/15). The transfer is carried out in a Biorad tank at 30 volts overnight or at 60 volts for 3 hours, in the presence of 20× NUPAGE Transfer Buffer diluted 20-fold (InVitrogen ref NP0006). The membrane is then saturated in saturating solution composed of TBS (10× Tris Buffered Saline, Sigma #T5912, diluted 10-fold), 0.1% Tween 20 (Sigma #P5927) and 3% BSA (Bovine Serum Albumin Fraction V, Sigma #A4503) for 6 h after overnight transfer or else for 1 h after transfer for a period of 3 h. […] Two rinses for 5 min in washing solution composed of TBS and 0.1% Tween 20 are carried out before hybridisation of the secondary antibodies. The secondary antibodies are diluted to 1/10000th for the rabbit anti-Mouse IgG HRP antibody ([…] Promega) and to 1/10000th for the goat anti-Rabbit IgG HRP antibody ([…] Promega) in saturating solution, and then shaken for 1 h at ambient temperature. Two rinses for 30 min in washing solution are carried out and then a rinse for 5 min in H2O is carried out in order to eliminate the remaining Tween 20. […] The luminescence is read with the FujiFilm device (Ray Test). The FUJI device measures the total luminescence signal obtained (AU) for each band selected. It then subtracts the background noise (BG) proportional to the size of the band selected (Area), said background noise being calculated from a specific background noise band, with a view to obtaining the specific signal (AU-BG) for each band. The band obtained in the absence of product and in the presence of 0.1% DMSO is considered to be the 100% signal. The software calculates the % specific activity (Ratio) obtained for each band selected as a function of this 100% signal. The percentage inhibition is calculated for each concentration according to the formula (100%-Ratio). Two independent experiments make it possible to calculate the mean of the percentages of inhibition obtained at a given concentration for the products tested only at one concentration. […] Two independent experiments make it possible to calculate the mean of the IC50 values.

Assay [2] concerns translocation of the LC3 protein in Hela GFP-LC3 cells. In words: Study of the translocation of the LC3 protein in Hela human cells, measured by image analysis cytometry (Test C, autophagy). Conditions: Homo sapiens, HeLa, 2 h, Hela GFP-LC3 cells with LC3 granulations, EBSS + 10 μM hydroxychloroquine, absolute IC50. How it is done: The inhibitory activity of the molecules on autophagy is measured by the translocation of the LC3 protein from the cytoplasm to the autophagosomes. For this, Hela cells were transfected with a vector encoding the chimeric protein GFP-LC3. A Hela clone stably expressing the GFP-LC3 protein was selected.
Study of the Translocation of the LC3 Protein in Hela Human Cells, Measured by Image Analysis Cytometry (Test C):
On day 2, the cells are washed twice with EBSS (Sigma #E3024). The cells are then incubated in EBSS, 10 μM of hydroxychloroquine and test products for 2 h at 37° C. in the presence of 5% CO2. The molecules are diluted in dimethyl sulphoxide (DMSO Sigma #D2650), the final DMSO percentage being 0.1%.
After this incubation, the cells are fixed with 4% paraformaldehyde (Sigma #HT501128 4 L) for 10 min. […] The 96-well plates are then read with the iCyte image analysis cytometer (Compucyte).
Two independent experiments make it possible to calculate the mean of the IC50 values.

The subject of assay [3] is AKT protein phosphorylated on serine 473 (P-AKT-S473) in PC3 human prostate carcinoma line. In words: Study of pAKT expression in PC3 human prostate carcinoma cells measured by the MSD Multi-spot Biomarker Detection technique (Test B). Conditions: Homo sapiens, PC-3, P-AKT-S473 in PC3 cells, MSD sandwich immunoassay, 1 to 2 h incubation; absolute IC50, mean of 2 experiments. Here is the method:
The inhibitory activity of the molecules on AKT phosphorylation is measured either by western blotting using the technique described below, or by the MSD Multi-spot Biomarker detection technique from Meso Scale Discovery also described below.
Study of pAKT Expression in PC3Human Prostate Carcinoma Cells Measured by the MSD Multi-Spot Biomarker Detection Technique from Meso Scale Discovery (Test B):
The primary antibody specific for P-AKT-S473 (Kit #K151CAD) is coated onto an electrode in each well of the 96-well plates of the MSD kit: after the addition of a protein lysate to each well, the signal is visualised by adding a secondary detection antibody labelled with an electrochemiluminescent compound. The procedure followed is that described in the kit.
On day 2, the cells are incubated in the presence or absence of the test products for 1 to 2 h at 37° C. in the presence of 5% of CO2. The molecules, diluted in dimethyl sulphoxide (DMSO Sigma #D2650), are added from a 20-times concentrated stock solution, the final percentage of DMSO being 0.1%.
After this incubation, the cells are lysed for the preparation of the proteins. […] At this stage, the plates containing the lysates can be frozen at −20° C. or at −80° C.
The wells of the 96-well plates of the MSD kit are saturated for 1 h at ambient temperature with the blocking solution of the MSD kit. Four washes are carried out with 150 μl of Tris Wash Buffer of the MSD kit. The lysates previously prepared are transferred into the 96-well multi-spot plates of the MSD kit and incubated for 1 h at ambient temperature, with shaking. Four washes are carried out with 150 μl of Tris Wash Buffer of the MSD kit. 25 μl of the MSD sulfo-tag detection antibody solution are added to the wells and incubated for 1 h at ambient temperature, with shaking. Four washes are carried out with 150 μl of Tris Wash Buffer of the MSD kit. 150 μl of Read Buffer of the MSD kit are added to the wells and the plates are read immediately on the S12400 instrument from Meso Scale Discovery.
The instrument measures a signal for each well. Wells without cells and containing the lysis buffer serve to determine the background noise that will be subtracted from all the measurements (min). The wells containing cells in the absence of product and in the presence of 0.1% DMSO are considered to be the 100% signal (max). The percentage inhibition is calculated for each concentration of test product according to the following formula: (1−((test−min)/(max−min)))×100.
2 independent experiments make it possible to calculate the mean of the IC50 values.

Assay [4] has as its system P. falciparum (highly chloroquine-resistant strain Fcm29-Cameroon). The assay is described as follows: Antimalarial activity test (radioactive micromethod of Desjardins). Particulars: Plasmodium falciparum, Erythrocyte, infected human erythrocytes, 48 h, tritiated hypoxanthine incorporation. How it is done: Antimalarial Activity Test
The P. falciparum strains are cultured in solutions of RPM! […] For each assay, the parasites are incubated with selected concentrations of drugs for 48 h at 37° C. in a humid atmosphere and at 5% CO2. Artemisinin, artesunate and also chloroquine diphosphate are used as reference molecules. The first dilution of the drug is prepared at 1 mg/ml in dimethyl sulphoxide. The range of successive daughter solution dilutions is also prepared in dimethyl sulphoxide. […] These dilutions are then added to the parasites in culture in the microplates. […] The growth of the parasites is measured by incorporation of tritiated hypoxanthine (added 24 h after the beginning of the exposure to the drug) compared with the incorporation in the absence of drug.

Each structure is given as a SMILES string. Some results are limits rather than exact numbers.

With `O=c1cc(N2CCOCC2)nc2n1CC[C@@H](C(F)(F)F)N2c1ccncc1` [Example 20, (S)-2-morpholin-4-yl-9-pyridin-4-yl-8-trifluoromethyl-6,7,8,9-tetrahydropyrimido[1,2-a]pyrimidin-4-one], the IC50 (usually the concentration that gives 50% inhibition) in assay [1] was 60 nM; in assay [2], above 1000 nM.

Take `C[C@@H](c1ccc(Br)cc1)N1c2nc(N3CCOCC3)cc(=O)n2CC[C@H]1C(F)(F)F` (single isomer, unassigned) [Example 10, (8S)-9-[R1R or 1S)-1-(4-bromophenyl)ethyl]-2-(morpholin-4-yl)-8-(trifluoromethyl)-6,7,8,9-tetrahydro-4H-pyrimido[1,2-a]pyrimidin-4-one]: the IC50 in assay [1] was 357 nM; in assay [2], 249 nM.

For `COc1ccc(C(C)N2c3nc(N4CCOCC4)cc(=O)n3CC[C@H]2C(F)(F)F)cc1` (mixture of isomers) [Example 9, (8S)-9-[(1R and 1S)-1-(4-methoxyphenyl)ethyl]-2-(morpholin-4-yl)-8-(trifluoromethyl)-6,7,8,9-tetrahydro-4H-pyrimido[1,2-a]pyrimidn-4-one], the IC50 in assay [1] is 676 nM.

With `COc1ccc(CCN2c3nc(N4CCOCC4)cc(=O)n3CCC2C(F)(F)F)cc1` (racemic) [Example 2, (R,S)-9-[2-(4-methoxyphenyl)ethyl]-2-morpholin-4-yl-8-trifluoromethyl-6,7,8,9-tetrahydropyrimido[1,2-a]pyrimidin-4-one], the IC50 in assay [1] was 315 nM; in assay [2] it was 16 nM.

For the compound `C[C@H](c1cccc(F)c1)N1c2nc(N3CCOCC3)cc(=O)n2CC[C@H]1C(F)(F)F` (single isomer, unassigned) [Example 16, (8S)-9-[(1R or 1S)-1-(3-fluorophenyl)ethyl]-2-(morpholin-4-yl)-8-(trifluoromethyl)-6,7,8,9-tetrahydro-4H-pyrimido[1,2-a]pyrimidin-4-one], the half-inhibitory concentration (IC50) in assay [1] stood at 41 nM; in assay [2] it was 187 nM.

For `O=C(c1ccccc1)N1c2nc(N3CCOCC3)cc(=O)n2CC[C@H]1C(F)(F)F` [Example 18, (S)-9-Benzoyl-2-morpholin-4-yl-8-trifluoromethyl-6,7,8,9-tetrahydropyrimido[1,2-a]pyrimidin-4-one], the IC50 is 335 nM in assay [1] and above 1000 nM in assay [2].

For `COc1ccc(N2c3nc(N4CCOCC4)cc(=O)n3CC[C@H]2C(F)(F)F)cc1` [Example 27, (8S)-9-(4-methoxyphenyl)-2-(morpholin-4-yl)-8-(trifluoromethyl)-6,7,8,9-tetrahydro-4H-pyrimido[1,2-a]pyrimidin-4-one], the IC50 in assay [3] is 10 nM; in assay [2], 363 nM. Besides, in assay [4], the inhibition (in general, how much of the control response was suppressed) at 1 µM was found to be 36%.

`O=c1cc(N2CCOCC2)nc2n1CC[C@@H](C(F)(F)F)N2Cc1ccc(F)cc1` [Example 17, (8S)-9-(4-fluorobenzyl)-2-(morpholin-4-yl)-8-(trifluoromethyl)-6,7,8,9-tetrahydro-4H-pyrimido[1,2-a]pyrimidin-4-one]: the IC50 worked out at 350 nM in assay [1] and 119 nM in assay [2].

Take `O=c1cc(N2CCOCC2)nc2n1CC[C@@H](C(F)(F)F)N2CCc1ccccc1` [Example 3, (S)-2-morpholin-4-yl-9-phenethyl-8-trifluoromethyl-6,7,8,9-tetrahydropyrimido[1,2-a]pyrimidin-4-one]: the 50% inhibitory concentration (IC50) turned out to be 15 nM in assay [1] and 20 nM in assay [2].

As to `C[C@@H](c1ccccc1)N1c2nc(N3CCOCC3)cc(=O)n2CC[C@H]1C(F)(F)F` (single isomer, unassigned) [Example 8, (8S)-2-(morpholin-4-yl)-9-[(1R or 1S)-1-phenylethyl]-8-(trifluoromethyl)-6,7,8,9-tetrahydro-4H-pyrimido[1,2-a]pyrimidin-4-one], the IC50 turned out to be 75 nM in assay [1] and 462 nM in assay [2].

For `COc1ccccc1CCN1c2nc(N3CCOCC3)cc(=O)n2CC[C@H]1C(F)(F)F` [Example 24, (8S)-9-[2-(2-methoxyphenyl)ethyl]-2-(morpholin-4-yl)-8-(trifluoromethyl)-6,7,8,9-tetrahydro-4H-pyrimido[1,2-a]pyrimidin-4-one], the IC50 in assay [3] worked out at 9 nM; in assay [2] it was 103 nM. Besides, in assay [4] (0.1 μM), the inhibition at 0.1 µM worked out at 40%. In addition, the inhibition at 1 µM in assay [4] came to 100%.
